Source: patent publication US6670377B1, “Quinoline derivatives, having in particular antiviral properties, preparation and biological applications thereof” (Centre National de la Recherche, priority 1997, dated 2003)
Entries after “also recorded” stand apart in the source; their conditions may differ.

Key:
[1] = biological target: T1, HIV-1 integrase (Human immunodeficiency virus type 1 group M subtype B, UniProt P04585); conditions: three tests: endonucleolytic cleavage, strand transfer, disintegration
Protocol: 1—The endonucleolytic activity of the protein is tested on a double-strand oligonucleotide of 21 base pairs, radiolabelled at the 5′ end. The activity of the integrase is expressed by elimination of the dinucleotide at the 3′ end.
2—The strand transfer test is carried out with a double-strand oligonucleotide of 21 base pairs mimicking the end of the viral DNA, the 3′ terminal dinucleotide of which has been supressed. The activity of the protein is expressed by the covalent insertion of this oligonucleotide in a homologous oligonucleotide.
3—The disintegration test is carried out with a substrate mimicking the structure of the integrated viral DNA. The quantity of DNA excised by the integrase is measured. This last test only quantifies the catalytic activity of the protein excluding its fixation activity on the DNA.

[2] = biological target: EcoRI restriction enzyme (Escherichia coli, UniProt P00642); assay: inhibition of cleavage of linearized pSP65 plasmid by EcoRI; assay type: biochemical; conditions: 4 hours, 0.1 units EcoRI
Sequence of EcoRI restriction enzyme (P00642 whole entry): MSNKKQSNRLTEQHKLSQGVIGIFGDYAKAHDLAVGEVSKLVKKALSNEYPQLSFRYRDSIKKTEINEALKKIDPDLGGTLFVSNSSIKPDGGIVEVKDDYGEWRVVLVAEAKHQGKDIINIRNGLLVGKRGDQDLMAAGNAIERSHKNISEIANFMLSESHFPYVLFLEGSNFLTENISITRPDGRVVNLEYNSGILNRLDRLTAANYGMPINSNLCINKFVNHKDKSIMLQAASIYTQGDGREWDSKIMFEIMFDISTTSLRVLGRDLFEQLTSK
Protocol: The catalytic site of HIV-1 integrase is very close to that of the EcoRI restriction enzyme. The compounds which block both proteins are therefore catalytic inhibitors of integrase.
The linearized plasmid is incubated for 4 hours in the presence of 0.1 units of the EcoRI enzyme. The enzyme activity is monitored by the appearance of the cleavage products on 1.2% agarose gel.

[3] = biological target: T2, reverse transcriptase enzyme of the HIV-1 virus (Human immunodeficiency virus type 1 group M subtype B, UniProt P04585); assay: reverse transcriptase activity of lysed viral particles on polyrC/oligo(dG); assay type: biochemical; conditions: polyrC matrix, oligo (dG) primer
T2 construct: endogenous in cells; host or cells: viral particles concentrated from the supernatant of a CEM cell culture, lysed in non-ionic detergent
Protocol: The specificity of the compounds according to the invention for integrase is estimated by an activity test on the reverse transcriptase enzyme of the HIV-1 virus. This test is carried out in the following manner: The viral particles of a supernatant of a CEM cell culture (established lymphocyte line) are concentrated by centrifugation at 30,000 RPM. These viral particles are lysed in a non-ionic detergent and their reverse transcriptase activity is tested on a substrate formed from a hybridized oligo (dG) primer on a polyrC matrix. In the presence of radiolabelled nucleotide dG, the transcriptase activity is expressed by the formation of labelled polynucleotide which can be precipitated in trichloroacetic acid. This confirms that a dideoxynucleotide ddG inhibits the formation of acid precipitatable.

[4] = test system: HIV-1; assay: HIV-1 replication in CEM cells, infectious virus load on Hela β-gal CD4+ cells; assay type: cell-based; conditions: read-out: β-gal activity, 50% effectiveness on production of viral particles, 72 hours, HeLa β-gal colorimetric test, global antiviral effect
Excerpt: This is quantified in two of the following ways:

[5] = test system: CEM cells; assay: toxicity on CEM cells, MTT biotransformation test; assay type: cell-based
Protocol: (§1) The toxicity of the compounds is tested by a biotransformation test of MTT to formazan by cellular mitochondrial dehydrogenases.

[6] = test system: HIV-1; assay: late stages of HIV-1 replication in TNF-activated ACH2 cells, p24 ELISA; assay type: cell-based; conditions: 24 hours; for effect on the production of viral particles (in words): ACH2 cells
Protocol: (§2) The compounds according to the present invention were tested on the late stages of the replication of HIV-1. The test is as follows: The ACH2 cells which integrated HIV-1 viral DNA were used. […] When the cells are used in the presence of TNF, they express the HIV virus from the integrated provirus. The production of viral particles is detected 24 hours after activation. The viral load in the supernatant is quantified by the ELISA p24 test.

[7] = test system: ACH2 cells; assay: toxicity on ACH2 cells, MTT biotransformation test; assay type: cell-based
Protocol: as §1, §2

[8] = test system: HIV-1; conditions: 72 hours, ELISA p24
Protocol: The activity test consists of putting the cells of an established lymphocyte line, CEM cells, in contact with a supernatant of infected cells containing the infectious virions. The test is carried out in the following manner: The CEM cells, cultured in suspension in RPMI medium supplemented with 10% of foetal calf serum, are infected with a viral supernatant with a multiplicity of infection of 0.5. After 2 hours of infection, the cells are washed twice with RPMI medium in a manner so as to eliminate the residual viral particles. Finally, the cells are replaced in RPMI medium containing the compound according to the invention. The viral load is evaluated after 72 hours of culture. This is quantified in two of the following ways:
1) The quantity of viral protein p24 is determined by an ELISA test.

[9] = biological target: T1, HIV-1 integrase; assay: endonucleolytic cleavage test of HIV-1 integrase (21 bp oligonucleotide); assay type: biochemical; conditions: read-out: endonucleolytic cleavage, concentration necessary to block 50% of the activity of HIV-1 integrase
[10] = biological target: T1, HIV-1 integrase; assay: strand transfer test of HIV-1 integrase; assay type: biochemical; conditions: read-out: strand transfer, concentration necessary to block 50% of the activity of HIV-1 integrase
[11] = biological target: T1, HIV-1 integrase; assay: disintegration test of HIV-1 integrase; assay type: biochemical; conditions: read-out: disintegration, concentration necessary to block 50% of the activity of HIV-1 integrase

Row | Compound | anti-integrase activity in the tests for in vitro activity (in words) [1] | cleavage by EcoRI (in words) [2] | reverse transcription inhibition (in words) [3] | EC50 [4] [µM] | MTT, toxicity by biotransformation [5] [µM] | toxicity according to the MTT test (in words) ([5]; up to 100 μM, maximum concentration tested) | effect on the production of viral particles (in words) ([6]; above 50 μM) | effect on the production of viral particles (in words) ([6]; concentrations up to 100 μM) | IC50 ([6]; Human immunodeficiency virus 1, ACH-2, ACH2 cells activated by TNF, effect on the late stages, read-out: p24 test, inhibitory 50% concentration) [µM] | MTT, toxicity by biotransformation [7] [µM] | anti-viral effect, production of viral particles / replication in CEM cells (in words) [8] | IC50 [9] [nM] | IC50 [10] [nM] | IC50 [11] [nM]
1 | O=C(O)c1ccc2ccc(/C=C/c3ccc(O)c(O)c3)nc2c1O [Compound 1, 8-hydroxy-2-[2-[(3,4-dihydroxyphenyl)ethenyl]]7-quinoline carboxylic acid] | inhibit the three activites | strongly inhibited | no reverse transcription inhibition | 4 | >100 | devoid of toxicity | slight inhibition | No other significant effect | > 100 | >100 |  |  |  | 
2 | O=C([O-])c1ccc2ccc(C=Cc3ccc(O)c(O)c3)nc2c1O.[Na+] [Compound 2, sodium salt of 8-hydroxy-2-[2-[(3,4-dihydroxyphenyl)ethenyl]]7-quinoline-carboxylic acid] |  |  |  |  |  |  |  |  |  |  | blocks the production of viral particules; also recorded: same anti-viral effect |  |  | 
3 | O=C(O)c1ccc2ccc(/C=C/c3cc(O)c(O)c(O)c3)nc2c1O [Compound 3, 8-hydroxy-2-[2-[(3.4,5-trihydroxyphenyl)ethenyl]]7-quinoline carboxylic acid] | inhibit the three activites |  |  |  |  |  |  |  |  |  |  | 320 | 310 | 56
